# PMC11316111, “Mechanism of allosteric inhibition of human p97/VCP ATPase and its disease mutant by triazole inhibitors” (Communications Chemistry, 2024)
# Where “and” joins values, the source holds several entries; their conditions need not be identical. Equal values may be shown once. Read-outs that look alike come from different tables or passages of the source.
# Key:
# [1] = target: T1, p97^P510S (Homo sapiens, UniProt P55072, P510S); assay: p97 ATPase activity (Biomol Green), P510S mutant; format: biochemical
# T1 construct: made in house
# T1 sequence (P55072 whole entry P510S): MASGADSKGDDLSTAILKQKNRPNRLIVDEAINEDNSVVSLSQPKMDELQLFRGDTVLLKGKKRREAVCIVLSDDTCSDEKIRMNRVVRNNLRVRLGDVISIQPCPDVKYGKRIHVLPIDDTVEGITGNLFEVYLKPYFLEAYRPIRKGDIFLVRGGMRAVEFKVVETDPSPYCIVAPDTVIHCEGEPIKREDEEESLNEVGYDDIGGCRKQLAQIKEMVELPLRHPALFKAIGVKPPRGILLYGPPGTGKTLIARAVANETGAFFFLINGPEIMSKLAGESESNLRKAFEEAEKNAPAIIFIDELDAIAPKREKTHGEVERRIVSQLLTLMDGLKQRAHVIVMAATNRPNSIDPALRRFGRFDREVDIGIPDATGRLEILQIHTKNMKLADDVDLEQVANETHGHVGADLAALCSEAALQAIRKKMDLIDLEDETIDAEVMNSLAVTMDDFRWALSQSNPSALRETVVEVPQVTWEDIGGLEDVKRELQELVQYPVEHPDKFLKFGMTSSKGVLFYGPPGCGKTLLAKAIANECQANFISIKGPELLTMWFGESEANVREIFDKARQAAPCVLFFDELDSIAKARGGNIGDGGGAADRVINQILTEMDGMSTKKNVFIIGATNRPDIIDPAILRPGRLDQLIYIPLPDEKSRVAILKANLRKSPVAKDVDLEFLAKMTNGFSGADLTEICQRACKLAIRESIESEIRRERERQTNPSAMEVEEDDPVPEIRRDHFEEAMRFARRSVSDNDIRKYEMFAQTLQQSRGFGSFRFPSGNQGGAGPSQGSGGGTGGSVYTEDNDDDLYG
# Procedure: (§1) Results were calculated from 6 replicates using GraphPad Prism 7.0 (GraphPad Software, Boston, MA).
# [2] = target: T2, p97^N616F (Homo sapiens, UniProt P55072, N616F); assay: p97 ATPase activity (Biomol Green), N616F mutant; format: biochemical
# T2 construct: made in house
# T2 sequence (P55072 whole entry N616F): as the sequence (P55072 whole entry P510S) above, with S510P, N616F counted along it
# Procedure: as §1
# [3] = target: T3, p97^F618S (Homo sapiens, UniProt P55072, F618S); assay: p97 ATPase activity (Biomol Green), F618S mutant; format: biochemical
# T3 construct: made in house
# T3 sequence (P55072 whole entry F618S): as the sequence (P55072 whole entry P510S) above, with S510P, F618S counted along it
# Procedure: as §1
# [4] = target: T4, p97^R155H (Homo sapiens, UniProt P55072, R155H); assay: p97 ATPase activity (Biomol Green), R155H mutant; format: biochemical
# T4 construct: enabling us to acquire high-resolution biomolecular structures of full-length p97; made in house
# T4 sequence (P55072 whole entry R155H): as the sequence (P55072 whole entry P510S) above, with R155H, S510P counted along it
# Procedure: as §1
# [5] = target: T5, p97^K512N (Homo sapiens, UniProt P55072, K512N); assay: p97 ATPase activity (Biomol Green), K512N mutant; format: biochemical
# T5 construct: made in house
# T5 sequence (P55072 whole entry K512N): as the sequence (P55072 whole entry P510S) above, with S510P, K512N counted along it
# Procedure: as §1
# [6] = system: HCT116 p97WT; assay: HCT116 proliferation assay (CellTiter Glo); format: cell-based; set-up: key to cellular viability of HCT116: % of DMSO control viability
# Procedure: (§2) Anti-proliferative activity was measured using CellTiter Glo® Luminescent Cell Viability Assay (Promega G7572) according to the manufacturer’s procedure as described. RMPI1640 containing 5% FBS and 1% penicillin-streptomycin was used as a cell viability medium. A standard curve of HCT116 was generated for finding the linear relationship between the relative luminescence unit and the number of viable cells. […] 24 h after seeding, 8 μL of media containing 5% DMSO was added to each well, and the plate was incubated for an additional 48 h. To test the anti-proliferative activity of p97 inhibitors, we seeded HCT116 at 750 cells per well according to the linear range. […] After 48 h of treatment, cell viability was measured by adding CellTiter Glo reagent and reading the signal with a BioTek Synergy Neo plate reader (Agilent, Santa Clara, CA). The IC50 values were calculated from four replicates using the percentage of growth of treated cells versus the DMSO control. The results were analyzed using GraphPad Prism 7.0 (GraphPad, Boston, MA).
# [7] = target: T6, wild-type p97 (p97^WT) (Homo sapiens, UniProt P55072); assay: p97 ATPase activity (Biomol Green), wild-type p97; format: biochemical
# T6 construct: made in house
# T6 sequence (P55072 whole entry): as the sequence (P55072 whole entry P510S) above, with S510P counted along it
# Procedure: as §1
# [8] = system: Ub^G76V-GFP/ODD-Luc HeLa cells; assay: Cellular Ub^G76V-GFP accumulation assay; format: cell-based; conditions: Table S3, four replicates, read-out: UbG76V-GFP EC50
# Procedure: ImageXpress high-content confocal microscope (Molecular Devices, LLC., San Jose, CA) was used to image cells at GFP channel. The percentage of Ub^G76V-GFP accumulation (%Acc) is calculated using the following formula: […]
# The IC50 values were calculated by fitting the %Acc from four replicates with various concentrations of compounds using GraphPad Prism 7.0 (GraphPad, Boston, MA).
# [9] = target: T6, wild-type p97 (p97^WT); set-up: method as in PMID 26822609; conditions: read-out: IC50 (p97 ATPase); cited from earlier work
# [10] = system: HCT116 p97P510S; assay: Cellular viability, resistant HCT116 p97P510S; format: cell-based
# Procedure: (§3) Drug-resistant HCT116 cell lines were derived using the method previously described and with certain modifications[70],[99]. […] Drug-resistant clones were transferred into a new plate for passaging, and subsequently used to study drug resistance and identify the p97 mutations.
# as §2
# [11] = system: HCT116 p97K512N; assay: Cellular viability, resistant HCT116 p97K512N; format: cell-based
# Procedure: as §3, §2
# [12] = system: HCT116 p97F618S; assay: Cellular viability, resistant HCT116 p97F618S; format: cell-based; conditions: Table S3, four replicates
# Procedure: as §3, §2
# [13] = Homo sapiens, HCT-116, Table S3, cellular viability, four replicates, read-out: IC50 HCT116 p97WT
# [14] = Homo sapiens, HCT-116, Table S3, four replicates
compound,measurement,setting,value
C[C@@H]1CN(C(=O)Cn2ncc(-c3cc(F)c(OCc4nnc(S[C@H]5C=CCCC5)n4-c4cccnc4)cc3F)n2)C[C@H](C)O1 [NSC819701],"increase of IC50 versus p97^WT, P510S",[1],more than 30 fold
same,IC50,"[1]; 200 μM ATP, six replicates",2800 nM
same,"Ratio of IC50 values for mutants to IC50 values for wild-type p97, P510S",[1]; P510S/WT,175
same,"increase of IC50 versus p97^WT, N616F",[2],more than 30 fold
same,IC50,"[2]; 200 μM ATP, six replicates",5340 nM
same,"Ratio of IC50 values for mutants to IC50 values for wild-type p97, N616F",[2]; N616F/WT,334
same,"increase of IC50 versus p97^WT, F618S",[3],more than 30 fold
same,IC50,"[3]; 200 μM ATP, six replicates",1510 nM
same,"Ratio of IC50 values for mutants to IC50 values for wild-type p97, F618S",[3]; F618S/WT,94
same,IC50,"[4]; 200 μM ATP, six replicates",15 nM
same,"Ratio of IC50 values for mutants to IC50 values for wild-type p97, R155H",[4]; R155H/WT,0.9
same,"increase of IC50 versus p97^WT, K512N",[5],7.5 fold
same,IC50,"[5]; 200 μM ATP, six replicates",120 nM
same,"Ratio of IC50 values for mutants to IC50 values for wild-type p97, K512N",[5]; K512N/WT,7.5
same,IC50,[6]; [13],830 nM
same,IC50,"[7]; 200 μM ATP, six replicates",16 nM
same,"Ratio of IC50 values for mutants to IC50 values for wild-type p97, WT",[7]; WT/WT reference,1
same,% ATPase activity,[7]; inhibitor 0.000905 µM,102%
same,% ATPase activity,[7]; inhibitor 0.002716 µM,90%
same,% ATPase activity,[7]; inhibitor 0.008148 µM,71%
same,% ATPase activity,[7]; inhibitor 0.024444 µM,31%
same,% ATPase activity,[7]; inhibitor 0.073333 µM,23%
same,% ATPase activity,[7]; inhibitor 0.220000 µM,14%
same,EC50,"[8]; Homo sapiens, HeLa",660 nM
CC(C)N1CCN(CCNC2CCN(c3cccc(-c4cc5cc(F)ccc5[nH]4)c3)CC2)CC1 [UPCDC30245],IC50,[9],27 nM
CC1CCCC(C)N1CCOc1cc([N+](=O)[O-])ccc1C#N (centres unmarked) [UPCDC30733],IC50,"[10]; Table S3, four replicates",9600 nM
same,IC50,"[11]; Table S3, four replicates",25000 nM
same,IC50,[12],21000 nM
same,IC50,"[6]; Table S3, cellular viability, four replicates, read-out: IC50 HCT116 p97WT",680 nM
same,EC50,[8],530 nM
CN1CCC(NC(=O)OCC#Cc2cc(F)c(OCc3nnc(S[C@H]4C=CCCC4)n3-c3cccnc3)cc2F)CC1 [UPCDC30766],IC50,[10]; [14],10300 nM
same,IC50,[11]; [14],7300 nM
same,cellular viability of HCT116,"[6]; 0.06 µM, single replicates",99 and 98 and 101
same,cellular viability of HCT116,"[6]; 0.17 µM, single replicates",95 and 90
same,cellular viability of HCT116,"[6]; 0.52 µM, single replicates",6
same,cellular viability of HCT116,"[6]; 14.0 µM, single replicates",3
same,cellular viability of HCT116,"[6]; 42.1 µM, single replicates",1
same,viability at 0.06 µM,"[6]; Homo sapiens, HCT-116, 0.06 µM, single replicates, read-out: cellular viability of HCT116",94%
same,viability at 0.17 µM,"[6]; Homo sapiens, HCT-116, 0.17 µM, single replicates, read-out: cellular viability of HCT116",97%
same,viability at 0.52 µM,"[6]; Homo sapiens, HCT-116, 0.52 µM, single replicates, read-out: cellular viability of HCT116",5%
same,viability at 1.6 µM,"[6]; Homo sapiens, HCT-116, 1.60 µM, single replicates, read-out: cellular viability of HCT116",4%
same,viability at 4.7 µM,"[6]; Homo sapiens, HCT-116, 4.70 µM, single replicates, read-out: cellular viability of HCT116",5%
same,viability at 14 µM,"[6]; Homo sapiens, HCT-116, 14.0 µM, single replicates, read-out: cellular viability of HCT116",4%
same,viability at 42.1 µM,"[6]; Homo sapiens, HCT-116, 42.1 µM, single replicates, read-out: cellular viability of HCT116",2%
same,IC50,[6]; [13],290 nM
same,IC50,"[6]; Homo sapiens, HCT-116, Table S6, 48-hour treatment, read-out: Cell viability of HCT116 IC50",296 nM
same,EC50,"[8]; Homo sapiens, HeLa",270 nM
